Laboratory results as given in PubChem BioAssay AID256 (DTP/NCI, 2004).
Inconclusive results and toxic doses are left out. The calls were made as follows: active = survival T/C of 150% or more; inactive = T/C below 125% in these data.

Test system: CD2F1 mice, L1210 leukemia ip, survival T/C
Assay: NCI In Vivo Anticancer Drug Screen. Data for tumor model L1210 Leukemia (intraperitoneal) in CD2F1 (CDF1) mice
Details: higher = longer survival
Method in brief: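 Vehicle-treated tumor-bearing mice served as controls (C) for compound-treated mice (T). Reported figure is T divided by C.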

[1] = endpoint: mean survival time, dose: 100.0 mg/kg/injection, schedule: Q01DX009 (ip), vehicle: saline with Tween-80
[2] = endpoint: mean survival time, dose: 200.0 mg/kg/injection, schedule: Q01DX009 (ip), vehicle: saline with Tween-80
[3] = endpoint: mean survival time, dose: 400.0 mg/kg/injection, schedule: Q01DX009 (ip), vehicle: saline with Tween-80
[4] = endpoint: mean survival time, dose: 50.0 mg/kg/injection, schedule: Q01DX009 (ip), vehicle: other
[5] = endpoint: mean survival time, dose: 100.0 mg/kg/injection, schedule: Q01DX009 (ip), vehicle: other
[6] = endpoint: mean survival time, dose: 200.0 mg/kg/injection, schedule: Q01DX009 (ip), vehicle: other
[7] = endpoint: mean survival time, dose: 25.0 mg/kg/injection, schedule: Q01DX009 (ip), vehicle: water
[8] = endpoint: mean survival time, dose: 100.0 mg/kg/injection, schedule: Q04DX003 (ip), vehicle: saline
[9] = endpoint: mean survival time, dose: 200.0 mg/kg/injection, schedule: Q04DX003 (ip), vehicle: saline
[10] = endpoint: mean survival time, dose: 100.0 mg/kg/injection, schedule: Q01DX009 (ip), vehicle: saline
[11] = endpoint: mean survival time, dose: 200.0 mg/kg/injection, schedule: Q01DX009 (ip), vehicle: saline
[12] = endpoint: mean survival time, dose: 100.0 mg/kg/injection, schedule: Q01DX001 (ip), vehicle: saline with Tween-80
[13] = endpoint: mean survival time, dose: 200.0 mg/kg/injection, schedule: Q01DX001 (ip), vehicle: saline with Tween-80
[14] = endpoint: mean survival time, dose: 400.0 mg/kg/injection, schedule: Q01DX001 (ip), vehicle: saline with Tween-80
[15] = endpoint: mean survival time, dose: 100.0 mg/kg/injection, schedule: Q04DX003 (ip), vehicle: saline with Tween-80
[16] = endpoint: mean survival time, dose: 200.0 mg/kg/injection, schedule: Q04DX003 (ip), vehicle: saline with Tween-80
[17] = endpoint: mean survival time, dose: 100.0 mg/kg/injection, schedule: Q04DX002 (ip), vehicle: saline with Tween-80
[18] = endpoint: mean survival time, dose: 200.0 mg/kg/injection, schedule: Q04DX002 (ip), vehicle: saline with Tween-80
[19] = endpoint: mean survival time, dose: 400.0 mg/kg/injection, schedule: Q04DX002 (ip), vehicle: saline with Tween-80
[20] = endpoint: mean survival time, dose: 400.0 mg/kg/injection, schedule: Q04DX003 (ip), vehicle: saline with Tween-80
[21] = endpoint: mean survival time, dose: 50.0 mg/kg/injection, schedule: Q01DX009 (ip), vehicle: water
[22] = endpoint: mean survival time, dose: 100.0 mg/kg/injection, schedule: Q01DX009 (ip), vehicle: water
[23] = endpoint: mean survival time, dose: 200.0 mg/kg/injection, schedule: Q01DX009 (ip), vehicle: water
[24] = endpoint: mean survival time, dose: 400.0 mg/kg/injection, schedule: Q01DX009 (ip), vehicle: water

Measured: T/C

COc1ccc(OC)c(NC(=O)C2CC2)c1
inactive: [1] 97 % of control | [2] 102 % of control | [3] 98 % of control

Cc1cc(=O)cc(C(=O)O)o1
inactive: [4] 107 % of control | [5] 95 % of control | [6] 93 % of control

BrCC[n+]1ccc(-c2cc[n+](CCBr)cc2)cc1
inactive: endpoint: mean survival time, dose: 10.0 mg/kg/injection, schedule: Q01DX001 (ip), vehicle: Klucel (hydroxypropylcellulose) (HPC) 110 % of control | endpoint: mean survival time, dose: 20.0 mg/kg/injection, schedule: Q01DX001 (ip), vehicle: Klucel (hydroxypropylcellulose) (HPC) 93 % of control | endpoint: mean survival time, dose: 40.0 mg/kg/injection, schedule: Q01DX001 (ip), vehicle: Klucel (hydroxypropylcellulose) (HPC) 98 % of control

O=C(O)C1CC1.[Ag]
inactive: endpoint: mean survival time, dose: 0.78 mg/kg/injection, schedule: Q01DX009 (ip), vehicle: water 100 % of control | endpoint: mean survival time, dose: 1.56 mg/kg/injection, schedule: Q01DX009 (ip), vehicle: water 100 % of control | endpoint: mean survival time, dose: 3.12 mg/kg/injection, schedule: Q01DX009 (ip), vehicle: water 96 % of control | endpoint: mean survival time, dose: 6.25 mg/kg/injection, schedule: Q01DX009 (ip), vehicle: water 102 % of control | endpoint: mean survival time, dose: 12.5 mg/kg/injection, schedule: Q01DX009 (ip), vehicle: water 102 % of control | [7] 104 % of control | [8] 93 % of control | [9] 93 % of control

Cc1c(NCO)c(=O)n(-c2ccccc2)n1C
inactive: [10] 94 % of control | [11] 89 % of control | endpoint: mean survival time, dose: 400.0 mg/kg/injection, schedule: Q01DX009 (ip), vehicle: saline 105 % of control

NC(N)=NC(=S)Nc1ccccc1
inactive: [12] 118 % of control | [13] 103 % of control | [14] 118 % of control

O=S1(=O)CCC1
inactive: endpoint: mean survival time, dose: 75.0 mg/kg/injection, schedule: Q01DX001 (ip), vehicle: saline 114 % of control | endpoint: mean survival time, dose: 150.0 mg/kg/injection, schedule: Q01DX001 (ip), vehicle: saline 97 % of control | endpoint: mean survival time, dose: 300.0 mg/kg/injection, schedule: Q01DX001 (ip), vehicle: saline 105 % of control

O=CNc1ccc2c(c1)C(O)c1ccccc1-2 (stereo not drawn)
inactive: endpoint: mean survival time, dose: 62.5 mg/kg/injection, schedule: Q04DX003 (ip), vehicle: saline with Tween-80 103 % of control | endpoint: mean survival time, dose: 125.0 mg/kg/injection, schedule: Q04DX003 (ip), vehicle: saline with Tween-80 98 % of control | endpoint: mean survival time, dose: 250.0 mg/kg/injection, schedule: Q04DX003 (ip), vehicle: saline with Tween-80 97 % of control

O=C1OC2C3CC4C2OC(=O)C4C13 (stereo not drawn)
inactive: [1] 102 % of control | [2] 98 % of control | [3] 90 % of control

O=S(c1cc(Cl)ccc1O)c1cc(Cl)ccc1O
inactive: [15] 98 % of control | [16] 89 % of control

CC1=CC(=O)C2C(C)(C)CCCC2(C)C1(O)CCc1ccoc1 (stereo not drawn)
inactive: [17] 110 % of control | [18] 103 % of control | [19] 107 % of control

CCN(CC)CCN1CC2CC=CCC2C1 (stereo not drawn)
inactive: [1] 96 % of control

NC(=S=O)C(N)=S=O
inactive: endpoint: median survival time, dose: 50.0 mg/kg/injection, schedule: Q01DX005 (ip), vehicle: saline with Tween-80 103 % of control | endpoint: median survival time, dose: 100.0 mg/kg/injection, schedule: Q01DX005 (ip), vehicle: saline with Tween-80 100 % of control | endpoint: median survival time, dose: 200.0 mg/kg/injection, schedule: Q01DX005 (ip), vehicle: saline with Tween-80 111 % of control | endpoint: median survival time, dose: 400.0 mg/kg/injection, schedule: Q01DX005 (ip), vehicle: saline with Tween-80 107 % of control

CC(=O)N1c2cc3ccccc3cc2N(C(C)=O)c2cc3ccccc3cc21
inactive: [15] 103 % of control | [16] 103 % of control | [20] 107 % of control

COc1ccc(COC(=O)Nc2ccc(C)cc2)cc1
inactive: endpoint: mean survival time, dose: 50.0 mg/kg/injection, schedule: Q04DX002 (ip), vehicle: saline with Tween-80 100 % of control | [17] 100 % of control | [18] 96 % of control

c1ccc(-c2ccc(C3=NN(c4ccccc4)C(c4ccccc4)C3NC3CCCCC3)cc2)cc1 (stereo not drawn)
inactive: endpoint: mean survival time, dose: 12.5 mg/kg/injection, schedule: Q01DX009 (ip), vehicle: other 100 % of control | endpoint: mean survival time, dose: 25.0 mg/kg/injection, schedule: Q01DX009 (ip), vehicle: other 104 % of control | [4] 98 % of control | [5] 106 % of control | [6] 98 % of control

CC(CC(=O)O)c1ccc(Cl)cc1 (stereo not drawn)
inactive: [15] 101 % of control | [16] 101 % of control | [20] 101 % of control

O=C(c1ccccc1)C(O)(CC(c1ccccc1)[P+](c1ccccc1)(c1ccccc1)c1ccccc1)c1ccccc1 (stereo not drawn)
inactive: endpoint: mean survival time, dose: 6.25 mg/kg/injection, schedule: Q01DX001 (ip), vehicle: saline with Tween-80 103 % of control | endpoint: mean survival time, dose: 12.5 mg/kg/injection, schedule: Q01DX001 (ip), vehicle: saline with Tween-80 96 % of control | endpoint: mean survival time, dose: 25.0 mg/kg/injection, schedule: Q01DX001 (ip), vehicle: saline with Tween-80 100 % of control

COc1cc2c(cc1OC)C(C#N)N(C(=O)c1ccccc1)C=C2 (stereo not drawn)
inactive: [7] 93 % of control | [21] 100 % of control | [22] 93 % of control | [23] 94 % of control | [24] 86 % of control

C#CCC(O)CC (stereo not drawn)
inactive: endpoint: mean survival time, dose: 50.0 mg/kg/injection, schedule: Q01DX009 (ip), vehicle: saline 103 % of control | [10] 107 % of control | [11] 103 % of control

CCCCCOc1nccc(N)n1
inactive: [12] 98 % of control

CC(=O)OC1C(OC(C)=O)C(OC(C)=O)C(OC(C)=O)C(OC(C)=O)C1OC(C)=O (stereo not drawn)
inactive: [17] 100 % of control | [18] 86 % of control | [19] 93 % of control

CCOC(=O)C(C)Oc1ccc(Cl)cc1 (stereo not drawn)
inactive: [7] 107 % of control | [21] 106 % of control | [22] 106 % of control | [23] 107 % of control | [24] 109 % of control

NC(=Nc1ccccc1)Nc1ccccc1 (tested in a mixture with another compound)
inactive: [8] 103 % of control | [9] 97 % of control | endpoint: mean survival time, dose: 400.0 mg/kg/injection, schedule: Q04DX003 (ip), vehicle: saline 100 % of control

CC1=COC2CCCCC2O1 (stereo not drawn) (tested in a mixture with another compound)
inactive: [1] 95 % of control | [2] 97 % of control | [3] 91 % of control

CS(=O)(=O)OCCOS(C)(=O)=O
inactive: [1] 109 % of control | [15] 104 % of control | [2] 116 % of control | [16] 115 % of control | [20] 111 % of control

CCOc1ccccc1NC(=O)C(Br)C(Br)C(=O)O (stereo not drawn)
inactive: [12] 110 % of control | [13] 112 % of control | [14] 108 % of control

COc1cc(/C=N\O)nc(-c2ccccn2)c1
inactive: endpoint: mean survival time, dose: 100.0 mg/kg/injection, schedule: Q01DX001 (ip), vehicle: saline 107 % of control | endpoint: mean survival time, dose: 200.0 mg/kg/injection, schedule: Q01DX001 (ip), vehicle: saline 98 % of control | endpoint: mean survival time, dose: 400.0 mg/kg/injection, schedule: Q01DX001 (ip), vehicle: saline 97 % of control
